{
  "source": "patent US8048875B1",
  "about": "“Topical pharmaceutical composition comprising a cholinergic agent or a calcium channel blocker” (S.L.A. Pharma AG, priority 1997, dated 2011)",
  "key": {"[1]": {"experiment": "Dose ranging study of bethanechol cream in healthy volunteers, anal manometry", "format": "in vivo, human", "settings": "higher concentrations produced no additional effect", "source_text": "Bethanechol cream at concentrations of 0.05%, 0.1%, 0.5% and 1% w/w bethanechol were made up in accordance with Example 1. The compositions were studied following initial experimentation in an open way to determine a clinically effective dose range. […] Maximal effect was produced by application of 0.1% bethanechol and higher concentrations of the cream produced no additional effect. At 0.1% w/w bethanechol, the mean resting pressure was reduced from about 110 cm to about 85 cm H2O (about 25% decrease). A typical ‘one inch’ application of this cream from the tube is equivalent to 400 mcg of bethanechol."}, "[2]": {"settings": "higher concentrations did not produce an additional effect"}, "[3]": {"experiment": "Study of Example 4 repeated using oral diltiazem"}, "[4]": {"settings": "topical use; cited from earlier work"}, "[5]": {"settings": "after 1 hour, patients with anal fissures; cited from earlier work"}},
  "note": "Where two headings read alike, the source gives them in different places.",
  "data": [
    {"compound": "CC(C[N+](C)(C)C)OC(N)=O", "note": "(stereo not shown) [bethanechol]", "values": [
      {"measurement": "concentration producing the maximal effect on resting anal pressure", "setting": "[1]", "value": 0.1, "unit": "% w/w"}
    ]},
    {"compound": "COc1ccc([C@@H]2Sc3ccccc3N(CCN(C)C)C(=O)[C@@H]2OC(C)=O)cc1", "note": "[diltiazem]", "values": [
      {"measurement": "concentration producing the maximal effect on resting anal pressure", "setting": "[2]", "value": "about 2 % w/w"},
      {"measurement": "effect on mean anal resting pressure", "setting": "[3]; 60 mg oral once a day", "value": "no notable effect"},
      {"measurement": "patients who noticed postural dizziness", "setting": "[3]; 60 mg oral twice a day", "value": "two"},
      {"measurement": "mean anal resting pressure reduced by", "setting": "[3]; 60 mg oral twice a day, P=0.008", "value": 17, "unit": "%"}
    ]},
    {"compound": "O=[N+]([O-])OCC(CO[N+](=O)[O-])O[N+](=O)[O-]", "note": "[glyceryl trinitrate]", "values": [
      {"measurement": "effect on internal anal resting pressure", "setting": "[4]", "value": "reduces the internal anal resting pressure"}
    ]},
    {"compound": "O=C(NC1CCN(CCc2c[nH]c3ccccc23)CC1)c1ccccc1", "note": "[indoramin]", "values": [
      {"measurement": "reduction of maximum resting pressures in the anal canal", "setting": "[5]", "value": 35.8, "unit": "%"}
    ]}
  ]
}
